The values below come from ChEMBL document CHEMBL1857833, “Screening and optimization of specific chemical series against human African Trypanosomiasis (HAT)”.

For one series, the system named is Trypanosoma brucei. The series is described as follows: DNDI: Inhibition of Human African Trypanosomiasis, SBRI 427, in vitro. Type of series: functional, organism-based.
Series [1] in a line: DNDI: Cytotoxicity against L929 mouse fibroblasts, CYTO-SP, 24 hour. The series is classed as toxicity, cell-based. Particulars: mouse, L929 mouse fibroblasts.
[2] abbreviates: Trypanosoma brucei, SBRI 427, read-out: IC50.

In brackets after ≈: the same amount, converted by molar mass. Several values for one entry are separate records, joined by “and”; a condition that tells them apart may be missing. Identical values can stand only once.

In general, IC50 refers to the midpoint of a concentration-inhibition curve. For the molecule `N#Cc1cccnc1Oc1ccccc1`, in the series with Trypanosoma brucei (setting [2]), the 50% inhibitory concentration (IC50) is more than 5 µg/mL. In addition, the concentration for half-maximal inhibition (IC50) at 24 h in series [1] was more than 50 µg/mL.
On the same counts, the results for `Fc1ccccc1Oc1ncccc1CNC1CCCCC1` are more than 5 µg/mL and more than 50 µg/mL.
Regarding `N#Cc1cccnc1Oc1ccccc1Br`, in the series with Trypanosoma brucei (setting [2]), the IC50 was more than 5 µg/mL. Also, in series [1], the half-inhibitory concentration (IC50) at 24 h was more than 50 µg/mL.
With `Cc1ccc(-c2nc(CNC[C@@H]3CC[C@H]4C[C@@H]3C4(C)C)co2)cc1`, the IC50 with Trypanosoma brucei is 0.93 µg/mL and 2.49 µg/mL. Inhibition in series [1] was half-maximal at 28.4 µg/mL (≈ 87.5 µM) (IC50 at 24 h).
Turning to `CCc1ccccc1Oc1ncccc1/C(N)=N\O`, the IC50 in the series with Trypanosoma brucei (setting [2]) was more than 5 µg/mL. In series [1], this molecule returned an IC50 at 24 h of more than 5 µg/mL.
For the molecule `O/N=C(\NC1CCCC1)c1ccc(Oc2cc(Cl)ccc2Cl)nc1`, in the series on Trypanosoma brucei (setting [2]), the 50% inhibitory concentration (IC50) turned out to be 1.08 µg/mL (≈ 2.95 µM). Also, in series [1], the IC50 at 24 h was 28.8 µg/mL (≈ 78.6 µM).
As to `CSc1ccccc1Oc1ncccc1C#N`, in the series on Trypanosoma brucei (setting [2]), the half-inhibitory concentration (IC50) was more than 5 µg/mL. In series [1], this molecule yielded a half-inhibitory concentration (IC50) at 24 h of more than 50 µg/mL.
On the same counts, the results for `COc1cc(C)ccc1Oc1nc(C)ccc1/C(=N/O)NCc1cc(F)cc(F)c1` are 1.02 µg/mL (≈ 2.47 µM) and more than 50 µg/mL.
Take `N/C(=N/O)c1cccnc1Oc1ccc2ccccc2c1`: the IC50 in the series on Trypanosoma brucei (setting [2]) was more than 5 µg/mL. Moreover, in series [1], the 50% inhibitory concentration (IC50) at 24 h was more than 50 µg/mL.
As to `N/C(=N/O)c1cccnc1Oc1cccc2ccccc12`, the half-maximal inhibitory concentration (IC50) in the series with Trypanosoma brucei (setting [2]) is more than 5 µg/mL. Also, the IC50 at 24 h in series [1] was more than 50 µg/mL.
On the same counts, the results for `Cc1ccc(Oc2ncccc2/C(=N/O)NC2CCC(C)CC2)c2c1CCC2` (centres undefined) are 0.81 µg/mL (≈ 2.13 µM) and 32.5 µg/mL (≈ 85.5 µM).
On the same counts, the results for `O/N=C(\NCC1CCCCC1)c1cccnc1Oc1ccc(Cl)cc1` are 0.92 µg/mL (≈ 2.56 µM) and more than 50 µg/mL.
On the same counts, the results for `Cc1ccc(Oc2ncccc2/C(=N/O)NCc2cccs2)c2c1CCC2` are 1.09 µg/mL (≈ 2.87 µM) and more than 50 µg/mL.
With `O/N=C(\NC1CCC1)c1cccnc1OCC1CCCCC1`, the IC50 with Trypanosoma brucei (setting [2]) amounted to 0.64 µg/mL (≈ 2.11 µM). The molecule also displayed an IC50 at 24 h in series [1] of more than 50 µg/mL.
Turning to `CC(C)(C)CN/C(=N\O)c1cccnc1Oc1ccc(Cl)cc1`, the IC50 in the series on Trypanosoma brucei (setting [2]) worked out at 0.58 µg/mL (≈ 1.74 µM). Also, the IC50 at 24 h in series [1] was more than 50 µg/mL.
On the same counts, the results for `COc1ccc(Oc2ncccc2/C(=N/O)NCC(C)(C)C)cc1` are 0.18 µg/mL (≈ 0.546 µM) and more than 50 µg/mL.
On the same counts, the results for `N#Cc1cccnc1Oc1ccc2ccccc2c1` are more than 5 µg/mL and more than 50 µg/mL.
For the molecule `COc1cc(C)ccc1Oc1nc(C)ccc1/C(=N/O)NCc1cc(C)cc(C)c1`, the IC50 with Trypanosoma brucei (setting [2]) is 1.1 µg/mL (≈ 2.71 µM). In series [1], this molecule gave a half-maximal inhibitory concentration (IC50) at 24 h of more than 50 µg/mL.
On the same counts, the results for `Cc1ccc(Oc2ncccc2/C(=N/O)NCC2CC2)c2c1CCC2` are 0.21 µg/mL (≈ 0.622 µM) and more than 50 µg/mL.
On the same counts, the results for `COc1ccccc1Oc1ncccc1C(=O)NC1CCCCC1` are more than 5 µg/mL and more than 50 µg/mL.
Turning to `CCC(CC)N/C(=N\O)c1cccnc1Oc1ccc(OC)cc1`, the IC50 in the series on Trypanosoma brucei (setting [2]) was 0.78 µg/mL (≈ 2.37 µM). This molecule also had an IC50 at 24 h in series [1] of more than 50 µg/mL.
As for `Clc1ccc(-c2nc(CNCCCN3CCCC3)co2)c(Cl)c1`, the IC50 in the series on Trypanosoma brucei was 0.62 µg/mL and 1.33 µg/mL. Further, in series [1], half-maximal inhibition (IC50 at 24 h) required 33.6 µg/mL (≈ 94.8 µM).
For `Cc1ccccc1CN/C(=N\O)c1cccnc1Oc1c(F)cccc1F`, in the series on Trypanosoma brucei (setting [2]), the IC50 turned out to be 1.02 µg/mL (≈ 2.76 µM). In series [1], this molecule showed a half-maximal inhibitory concentration (IC50) at 24 h of more than 50 µg/mL.
On the same counts, the results for `N/C(=N/O)c1cccnc1Oc1ccccc1` are more than 5 µg/mL and more than 50 µg/mL.
`COc1ccc(Oc2ncccc2/C(=N/O)NC2CCCC2)cc1`: the IC50 with Trypanosoma brucei (setting [2]) was determined as 0.15 µg/mL (≈ 0.458 µM). Besides, in series [1], the IC50 at 24 h is more than 50 µg/mL.
Regarding `O/N=C(\NC1CCC1)c1cccnc1Oc1ccc2c(c1)CCCC2`, in the series on Trypanosoma brucei (setting [2]), the IC50 is 0.19 µg/mL (≈ 0.563 µM). The molecule also displayed an IC50 at 24 h in series [1] of more than 50 µg/mL.
On to `O/N=C(/c1cccnc1Oc1ccc2ccccc2c1)N1CCC2CCCCC2C1` (centres undefined), for which the IC50 in the series on Trypanosoma brucei (setting [2]) was determined as 0.13 µg/mL (≈ 0.324 µM). In addition, the IC50 at 24 h in series [1] is more than 50 µg/mL.
Take `CCc1ccccc1Oc1ncccc1C#N`: the IC50 in the series with Trypanosoma brucei (setting [2]) was more than 5 µg/mL. The molecule also yielded an IC50 at 24 h in series [1] of more than 50 µg/mL.
On the same counts, the results for `N#Cc1cccnc1Oc1cccc2ccccc12` are more than 5 µg/mL and more than 50 µg/mL.
Consider `CCc1ccc(Oc2ncccc2/C(=N/O)NCc2ccccc2OC)cc1`, for which the 50% inhibitory concentration (IC50) with Trypanosoma brucei (setting [2]) is 1.08 µg/mL (≈ 2.86 µM). This molecule also yielded an IC50 at 24 h in series [1] of more than 50 µg/mL.
As for `Cc1ccc(Oc2ncccc2/C(=N/O)NCC(C)C)c2c1CCC2`, in the series on Trypanosoma brucei (setting [2]), the IC50 was 0.55 µg/mL (≈ 1.62 µM). This molecule also returned a half-maximal inhibitory concentration (IC50) at 24 h in series [1] of more than 50 µg/mL.
`CC1CCC(N/C(=N\O)c2cccnc2Oc2ccccc2OC(C)C)CC1` (centres undefined): in the series on Trypanosoma brucei (setting [2]), the half-maximal inhibitory concentration (IC50) was determined as 0.55 µg/mL (≈ 1.43 µM). In series [1], this molecule returned an IC50 at 24 h of more than 50 µg/mL.
With `Cc1ccc2cccc(Oc3ccc(/C(=N/O)NC4CCCCC4)cn3)c2n1`, in the series on Trypanosoma brucei (setting [2]), the IC50 turned out to be 1.08 µg/mL (≈ 2.87 µM). Besides, the 50% inhibitory concentration (IC50) at 24 h in series [1] is more than 50 µg/mL.
On the same counts, the results for `O/N=C(\NC1CCCCC1)c1ccc(Oc2ccc(Cl)cc2)nc1` are 1.2 µg/mL (≈ 3.47 µM) and 30.8 µg/mL (≈ 89.1 µM).
In the case of `CC(C)(C)CN/C(=N\O)c1ccc(Oc2cc(Cl)ccc2Cl)nc1`, the IC50 with Trypanosoma brucei (setting [2]) was 0.9 µg/mL (≈ 2.44 µM). In series [1], this molecule returned an IC50 at 24 h of more than 50 µg/mL.
In the case of `O=C(NC1CCCCC1)c1cccnc1Oc1ccccc1`, the half-inhibitory concentration (IC50) in the series with Trypanosoma brucei (setting [2]) was more than 5 µg/mL. The molecule further came in with a half-maximal inhibitory concentration (IC50) at 24 h in series [1] of more than 50 µg/mL.
With `COc1cccc(CN/C(=N\O)c2cccnc2Oc2ccc(Cl)cc2)c1`, in the series on Trypanosoma brucei (setting [2]), the half-inhibitory concentration (IC50) was determined as 1.1 µg/mL (≈ 2.87 µM). Also, in series [1], the IC50 at 24 h was more than 50 µg/mL.
